This note sets out measurements from patent US20230158025A1 (UNIVERSITY OF UTAH RESEARCH FOUNDATION, priority 2020, published 2023).

The structures appear in SMILES notation.

The target of data set [1] is recombinant human GALK1 (Homo sapiens, UniProt P51570). The experiment in a line: hGALK1 biochemical activity assay (Kinase-Glo Plus, ATP depletion). As to conditions: recombinant human GALK1, Kinase-Glo Plus ATP depletion, bracketed figure in the cell, e.g. (−1.2), is not defined in the text shown; for IC50: read-out: hGALK. The gist of the method:
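Recombinant human or mouse GALK1 (5 nM, with 100 μM galactose, in the added enzyme solution) was run with ATP (35 μM in the substrate solution) in HEPES pH 8.0 buffer. Compounds were tested at 11 1/3-step concentrations from 57.4 μM to 0.97 nM. After 1 h at room temperature, remaining ATP was read by Kinase-Glo Plus luminescence.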

Data set [2] deals with recombinant mouse GALK1 (Mus musculus, UniProt Q9R0N0). Description: mGALK1 biochemical activity assay (Kinase-Glo Plus, ATP depletion). The following applies: recombinant mouse GALK1, Kinase-Glo Plus ATP depletion, bracketed figure in the cell, e.g. (−1.2), is not defined in the text shown; for IC50: read-out: mGALK. The gist of the method: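 Recombinant GALK1 (5 nM) with 100 μM galactose; GALK1 turnover read as ATP depletion by Kinase-Glo Plus luminescence. Reaction ran 1 h at room temperature before detection reagent was added.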
Sequence of recombinant mouse GALK1 (Q9R0N0 whole entry): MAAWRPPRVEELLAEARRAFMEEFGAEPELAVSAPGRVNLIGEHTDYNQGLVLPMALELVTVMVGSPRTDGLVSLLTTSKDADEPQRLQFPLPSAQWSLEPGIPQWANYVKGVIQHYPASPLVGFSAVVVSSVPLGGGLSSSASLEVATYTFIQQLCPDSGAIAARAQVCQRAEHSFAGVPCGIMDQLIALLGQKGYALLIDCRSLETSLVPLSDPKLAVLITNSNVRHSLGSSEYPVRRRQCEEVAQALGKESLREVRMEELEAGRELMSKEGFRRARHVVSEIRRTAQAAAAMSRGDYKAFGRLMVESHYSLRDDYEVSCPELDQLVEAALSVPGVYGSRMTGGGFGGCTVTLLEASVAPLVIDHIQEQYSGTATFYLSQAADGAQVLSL

Data set [3] is described as follows: PAMPA permeability. The following applies: PAMPA.
Data set [4] is described as follows: aqueous kinetic solubility. As to conditions: aqueous kinetic solubility.
Data set [5] is described as follows: rat microsomal stability (RLM). The following applies: microsomal stability half-life, minutes.

Sequence of recombinant human GALK1 (P51570 whole entry): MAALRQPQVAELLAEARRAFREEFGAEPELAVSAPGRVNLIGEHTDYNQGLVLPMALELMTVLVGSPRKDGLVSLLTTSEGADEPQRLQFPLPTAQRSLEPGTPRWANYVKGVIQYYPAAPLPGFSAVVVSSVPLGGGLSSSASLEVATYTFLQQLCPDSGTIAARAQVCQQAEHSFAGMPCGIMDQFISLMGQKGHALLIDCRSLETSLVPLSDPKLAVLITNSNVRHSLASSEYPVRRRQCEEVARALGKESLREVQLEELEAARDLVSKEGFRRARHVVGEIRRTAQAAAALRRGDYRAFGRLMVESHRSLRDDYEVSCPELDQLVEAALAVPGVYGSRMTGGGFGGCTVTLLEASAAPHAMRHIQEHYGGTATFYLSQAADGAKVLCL

As to `CC(C)C1=C(C(=O)Nc2nncs2)C(c2ccccc2Cl)N=C(Nc2nc3ccccc3o2)N1` (stereo not shown) [Compound 250, 2-(benzo[d]oxazol-2-ylamino)-4-(2-chlorophenyl)-6-isopropyl-N-(1,3,4-thiadiazol-2-yl)-1,4-dihydropyrimidine-5-carboxamide], the figures for the IC50 in data set [1] and in data set [2] were 7.69 µM and 15.3 µM, respectively. The “Perm. (1 × 10^−6 cm/sec)” value in data set [3] is listed as 24.6 1 × 10^−6 cm/sec. Further, the “Sol.” value in data set [4] was less than 1 µg/mL. The “Metab. Stabil. (m)” value in data set [5] is reported as greater than 30 m.
On the same counts, the results for `CC1=C(C(=O)Nc2nncs2)C(c2ccccc2Br)N=C(Nc2nc3ccccc3o2)N1` (stereo not shown) [Compound 251, 2-(benzo[d]oxazol-2-ylamino)-4-(2-bromophenyl)-6-methyl-N-(1,3,4-thiadiazol-2-yl)-1,4-dihydropyrimidine-5-carboxamide] are 4.32 µM, 9.68 µM, 446.9 1 × 10^−6 cm/sec, less than 1 µg/mL and greater than 30 m.
On to `CC1=C(C(=O)Nc2nncs2)C2(CCCC2)N=C(Nc2nc3ccccc3o2)N1` [Compound 252, 7-(benzo[d]oxazol-2-ylamino)-9-methyl-N-(1,3,4-thiadiazol-2-yl)-6,8-diazaspiro[4.5]deca-6,9-diene-10-carboxamide], for which the IC50 in data set [1] came out at 3.85 µM; in data set [2] it was 19.3 µM. Further, in data set [3], the “Perm. (1 × 10^−6 cm/sec)” value was <1 1 × 10^−6 cm/sec. In addition, the “Sol.” value in data set [4] was less than 1 µg/mL. Further, the “Metab. Stabil. (m)” value in data set [5] was greater than 30 m.
For `CC1=C(C(=O)Nc2nncs2)C(c2nn(C)cc2Cl)N=C(Nc2nc3ccccc3o2)N1` (stereo not shown) [Compound 253, 2-(benzo[d]oxazol-2-ylamino)-4-(4-chloro-1-methyl-1H-pyrazol-3-yl)-6-methyl-N-(1,3,4-thiadiazol-2-yl)-1,4-dihydropyrimidine-5-carboxamide] the same measures were 7.69 µM, 17.2 µM, 746.9 1 × 10^−6 cm/sec, 12.8 µg/mL and greater than 30 m.
In the case of `CC1=C(C(=O)Nc2nncs2)C(c2n[nH]cc2Cl)N=C(Nc2nc3ccccc3o2)N1` (stereo not shown) [Compound 254, 2-(benzo[d]oxazol-2-ylamino)-4-(4-chloro-1H-pyrazol-3-yl)-6-methyl-N-(1,3,4-thiadiazol-2-yl)-1,4-dihydropyrimidine-5-carboxamide], the results for the IC50 in data set [1] and in data set [2] were 17.2 µM and 54.4 µM, respectively. Also, the “Perm. (1 × 10^−6 cm/sec)” value in data set [3] is listed as 37.0 1 × 10^−6 cm/sec. The “Sol.” value in data set [4] was determined as 34.6 µg/mL. Besides, the “Metab. Stabil. (m)” value in data set [5] is given as greater than 30 m.
On the same counts, the results for `CC1=C(C(=O)Nc2nncs2)C(c2ccncc2Br)N=C(Nc2nc3ccccc3o2)N1` (stereo not shown) [Compound 255, 2-(benzo[d]oxazol-2-ylamino)-4-(3-bromopyridin-4-yl)-6-methyl-N-(1,3,4-thiadiazol-2-yl)-1,4-dihydropyrimidine-5-carboxamide] are 3.43 µM, 19.3 µM, 208.7 1 × 10^−6 cm/sec, 6.5 µg/mL and greater than 30 m.
For `CC1=C(C(=O)Nc2nncs2)C(c2ncccc2Cl)N=C(Nc2nc3ccccc3o2)N1` (stereo not shown) [Compound 256, 2-(benzo[d]oxazol-2-ylamino)-4-(3-chloropyridin-2-yl)-6-methyl-N-(1,3,4-thiadiazol-2-yl)-1,4-dihydropyrimidine-5-carboxamide] the same measures were 6.85 µM, 19.3 µM, 695.3 1 × 10^−6 cm/sec, 10.6 µg/mL and greater than 30 m.
Consider `CC1=C(C(=O)Nc2nncs2)C(c2ncccc2Br)N=C(Nc2nc3ccccc3o2)N1` (stereo not shown) [Compound 257, 2-(benzo[d]oxazol-2-ylamino)-4-(3-bromopyridin-2-yl)-6-methyl-N-(1,3,4-thiadiazol-2-yl)-1,4-dihydropyrimidine-5-carboxamide], for which the figures for the IC50 in data set [1] and in data set [2] were 4.85 µM and 6.85 µM, respectively. Also, the “Perm. (1 × 10^−6 cm/sec)” value in data set [3] was 709.3 1 × 10^−6 cm/sec. Further, the “Sol.” value in data set [4] was 3.0 µg/mL. For the same molecule, the “Metab. Stabil. (m)” value in data set [5] is recorded as greater than 30 m.
For `CC1=C(C(=O)Nc2nncs2)C(c2c(Br)cnn2C)N=C(Nc2nc3ccccc3o2)N1` (stereo not shown) [Compound 258, 2-(benzo[d]oxazol-2-ylamino)-4-(4-bromo-1-methyl-1H-pyrazol-5-yl)-6-methyl-N-(1,3,4-thiadiazol-2-yl)-1,4-dihydropyrimidine-5-carboxamide], the IC50 in data set [1] is 21.7 µM. In addition, the “mGALK (μM)” value in data set [2] is “in- active”. Besides, the “Perm. (1 × 10^−6 cm/sec)” value in data set [3] is 198.3 1 × 10^−6 cm/sec. Moreover, the “Sol.” value in data set [4] worked out at 38.7 µg/mL. Further, the “Metab. Stabil. (m)” value in data set [5] is recorded as greater than 30 m.
Take `CC1=C(C(=O)Nc2nncs2)C2(Cc3ccccc32)N=C(Nc2nc3ccccc3o2)N1` (stereo not shown) [Compound 259, 2′-(benzo[d]oxazol-2-ylamino)-6′-methyl-N-(1,3,4-thiadiazol-2-yl)-1′H-spiro[bicyclo[4.2.0]octane-7,4′-pyrimidine]-1,3,5-triene-5′-carboxamide]: the “hGALK (μM)” value in data set [1] is “in- active”. The “mGALK (μM)” value in data set [2] was “in- active”. In addition, the “Perm. (1 × 10^−6 cm/sec)” value in data set [3] is recorded as 190.9 1 × 10^−6 cm/sec. For the same molecule, the “Sol.” value in data set [4] stood at 50.9 µg/mL. In data set [5], the “Metab. Stabil. (m)” value was greater than 30 m.
Take `CC1=C(C(=O)Nc2nncs2)C2(CCOC2)N=C(Nc2nc3ccccc3o2)N1` (stereo not shown) [Compound 260, 7-(benzo[d]oxazol-2-ylamino)-9-methyl-N-(1,3,4-thiadiazol-2-yl)-2-oxa-6,8-diazaspiro[4.5]deca-6,9-diene-10-carboxamide]: the IC50 in data set [1] worked out at 12.2 µM. In data set [2], the “mGALK (μM)” value is “in- active”. The “Perm. (1 × 10^−6 cm/sec)” value in data set [3] was 102.7 1 × 10^−6 cm/sec. Besides, in data set [4], the “Sol.” value came out at 37.9 µg/mL. The “Metab. Stabil. (m)” value in data set [5] is on record as greater than 30 m.
Turning to `CC1=C(C(=O)Nc2nncs2)C(c2ccc(Cl)cc2Cl)N=C(Nc2nc3ccccc3o2)N1` (stereo not shown) [Compound 261, 2-(benzo[d]oxazol-2-ylamino)-4-(2,4-dichlorophenyl)-6-methyl-N-(1,3,4-thiadiazol-2-yl)-1,4-dihydropyrimidine-5-carboxamide], the results for the IC50 in data set [1] and in data set [2] were 4.85 µM and 6.11 µM, respectively. Further, the “Perm. (1 × 10^−6 cm/sec)” value in data set [3] is on record as <4.9 1 × 10^−6 cm/sec. In addition, the “Sol.” value in data set [4] is less than 1 µg/mL. Also, the “Metab. Stabil. (m)” value in data set [5] is recorded as greater than 30 m.
Take `CC1=C(C(=O)Nc2nncs2)C(c2cccnc2Br)N=C(Nc2nc3ccccc3o2)N1` (stereo not shown) [Compound 262, 2-(benzo[d]oxazol-2-ylamino)-4-(2-bromopyridin-3-yl)-6-methyl-N-(1,3,4-thiadiazol-2-yl)-1,4-dihydropyrimidine-5-carboxamide]: the IC50 was determined as 13.7 µM in data set [1] and 19.3 µM in data set [2]. Moreover, the “Perm. (1 × 10^−6 cm/sec)” value in data set [3] is listed as 185.7 1 × 10^−6 cm/sec. In addition, in data set [4], the “Sol.” value was determined as 11.1 µg/mL. For the same molecule, the “Metab. Stabil. (m)” value in data set [5] is reported as greater than 30 m.
Take `CC1=C(C(=O)Nc2nncs2)C(c2ccccc2C(F)(F)F)N=C(Nc2nc3ccccc3o2)N1` (stereo not shown) [Compound 263, 2-(benzo[d]oxazol-2-ylamino)-6-methyl-N-(1,3,4-thiadiazol-2-yl)-4-(2-(trifluoromethyl)phenyl)-1,4-dihydropyrimidine-5-carboxamide]: the IC50 was determined as 6.85 µM in data set [1] and 12.2 µM in data set [2]. For the same molecule, the “Perm. (1 × 10^−6 cm/sec)” value in data set [3] is reported as 29.8 1 × 10^−6 cm/sec. In addition, the “Sol.” value in data set [4] was less than 1 µg/mL. In data set [5], the “Metab. Stabil. (m)” value is listed as greater than 30 m.
On the same counts, the results for `CC1=C(C(=O)Nc2nncs2)C(c2ccc(C)cc2Cl)N=C(Nc2nc3ccccc3o2)N1` (stereo not shown) [Compound 264, 2-(benzo[d]oxazol-2-ylamino)-4-(2-chloro-4-methylphenyl)-6-methyl-N-(1,3,4-thiadiazol-2-yl)-1,4-dihydropyrimidine-5-carboxamide] are 3.06 µM, 6.11 µM, <14.4 1 × 10^−6 cm/sec, less than 1 µg/mL and greater than 30 m.
As to `CC1=C(C(=O)Nc2nncs2)C(c2nn(C)cc2Br)N=C(Nc2nc3ccccc3o2)N1` (stereo not shown) [Compound 265, 2-(benzo[d]oxazol-2-ylamino)-4-(4-bromo-1-methyl-1H-pyrazol-3-yl)-6-methyl-N-(1,3,4-thiadiazol-2-yl)-1,4-dihydropyrimidine-5-carboxamide], the IC50 in data set [1] was 3.43 µM; in data set [2] it was 19.3 µM. The “Perm. (1 × 10^−6 cm/sec)” value in data set [3] is recorded as 1044.0 1 × 10^−6 cm/sec. Besides, in data set [4], the “Sol.” value is 6.4 µg/mL. For the same molecule, in data set [5], the “Metab. Stabil. (m)” value is greater than 30 m.
On the same counts, the results for `COc1ccc(C2N=C(Nc3nc4ccccc4o3)NC(C)=C2C(=O)Nc2nncs2)c(Cl)c1` (stereo not shown) [Compound 266, 2-(benzo[d]oxazol-2-ylamino)-4-(2-chloro-4-methoxyphenyl)-6-methyl-N-(1,3,4-thiadiazol-2-yl)-1,4-dihydropyrimidine-5-carboxamide] are 3.85 µM, 5.44 µM, 31.9 1 × 10^−6 cm/sec, less than 1 µg/mL and greater than 30 m.
